# Results from PubChem BioAssay (NCI).
#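 Step 1: Grow cells in 96-well plates. Step 2: Expose to compound for 48 hours at 5 concentrations. Step 3: Interpolate endpoints linearly; if unreached, use highest concentration. TGI denotes the concentration required for complete inhibition of growth.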
# Key:
# Test in all cases: NCI anticancer screen, dose series, 48 h
# NCI-H522 lung = tested on: NCI-H522 lung
# HOP-62 NSCLC = tested on: HOP-62 NSCLC
# KM12 colon = tested on: KM12 colon
# A549 NSCLC = tested on: A549 NSCLC
# K-562 leukemia = tested on: K-562 leukemia
# OVCAR-3 ovarian = tested on: OVCAR-3 ovarian
# SK-MEL-5 melanoma = tested on: SK-MEL-5 melanoma
# UO-31 renal = tested on: UO-31 renal
# SK-MEL-28 melanoma = tested on: SK-MEL-28 melanoma
# SNB-75 CNS = tested on: SNB-75 CNS
# M14 melanoma = tested on: M14 melanoma
# HL-60(TB) leukemia = tested on: HL-60(TB) leukemia
# SN12C renal = tested on: SN12C renal
# SF-295 CNS = tested on: SF-295 CNS
# SK-MEL-2 melanoma = tested on: SK-MEL-2 melanoma
# SF-539 CNS = tested on: SF-539 CNS
# OVCAR-5 ovarian = tested on: OVCAR-5 ovarian
# NCI-H460 lung = tested on: NCI-H460 lung
# CCRF-CEM leukemia = tested on: CCRF-CEM leukemia
# RPMI-8226 leukemia = tested on: RPMI-8226 leukemia
# DMS 273 small cell lung = tested on: DMS 273 small cell lung
# A498 renal = tested on: A498 renal
# SNB-78 CNS = tested on: SNB-78 CNS
# KM20L2 colon = tested on: KM20L2 colon
# OVCAR-8 ovarian = tested on: OVCAR-8 ovarian
# IGROV1 ovarian = tested on: IGROV1 ovarian
# CAKI-1 renal = tested on: CAKI-1 renal
# LXFL 529 NSCLC = tested on: LXFL 529 NSCLC
# OVCAR-4 ovarian = tested on: OVCAR-4 ovarian
# UACC-257 melanoma = tested on: UACC-257 melanoma
# SW-620 colon = tested on: SW-620 colon
# MALME-3M melanoma = tested on: MALME-3M melanoma
# DLD-1 colon = tested on: DLD-1 colon
# NCI-H23 lung = tested on: NCI-H23 lung
# HT29 colon = tested on: HT29 colon
# SK-OV-3 ovarian = tested on: SK-OV-3 ovarian
# SNB-19 CNS = tested on: SNB-19 CNS
# HCT-15 colon = tested on: HCT-15 colon
# HCT-116 colon = tested on: HCT-116 colon
# ACHN renal = tested on: ACHN renal
# COLO 205 colon = tested on: COLO 205 colon
# HOP-92 NSCLC = tested on: HOP-92 NSCLC
# DMS 114 small cell lung = tested on: DMS 114 small cell lung
# SR leukemia = tested on: SR leukemia
# UACC-62 melanoma = tested on: UACC-62 melanoma
# TK-10 renal = tested on: TK-10 renal
# EKVX NSCLC = tested on: EKVX NSCLC
# HCC-2998 colon = tested on: HCC-2998 colon
# U251 CNS = tested on: U251 CNS
# MOLT-4 leukemia = tested on: MOLT-4 leukemia
# SF-268 CNS = tested on: SF-268 CNS
# RXF 393 renal = tested on: RXF 393 renal
# NCI-H226 lung = tested on: NCI-H226 lung
# 786-0 renal = tested on: 786-0 renal
# LOX IMVI melanoma = tested on: LOX IMVI melanoma
# HOP-18 NSCLC = tested on: HOP-18 NSCLC
# M19-MEL melanoma = tested on: M19-MEL melanoma
structure (smiles),measurement,setting,value
CC12CCC(=O)N1c1cnccc1N2 (stereo unspecified),TGI,NCI-H522 lung,> 100 µM
same,TGI,HOP-62 NSCLC,> 100 µM
same,TGI,KM12 colon,> 100 µM
same,TGI,A549 NSCLC,> 100 µM
same,TGI,K-562 leukemia,> 100 µM
same,TGI,OVCAR-3 ovarian,> 100 µM
same,TGI,SK-MEL-5 melanoma,> 100 µM
same,TGI,UO-31 renal,> 100 µM
same,TGI,SK-MEL-28 melanoma,> 100 µM
same,TGI,SNB-75 CNS,> 100 µM
same,TGI,M14 melanoma,> 100 µM
same,TGI,HL-60(TB) leukemia,> 100 µM
same,TGI,SN12C renal,> 100 µM
same,TGI,SF-295 CNS,> 100 µM
same,TGI,SK-MEL-2 melanoma,> 100 µM
same,TGI,SF-539 CNS,> 100 µM
same,TGI,OVCAR-5 ovarian,> 100 µM
same,TGI,NCI-H460 lung,> 100 µM
same,TGI,CCRF-CEM leukemia,> 100 µM
same,TGI,RPMI-8226 leukemia,> 100 µM
same,TGI,DMS 273 small cell lung,> 100 µM
same,TGI,A498 renal,> 100 µM
same,TGI,SNB-78 CNS,> 100 µM
same,TGI,KM20L2 colon,> 100 µM
same,TGI,OVCAR-8 ovarian,> 100 µM
same,TGI,IGROV1 ovarian,> 100 µM
same,TGI,CAKI-1 renal,> 100 µM
same,TGI,LXFL 529 NSCLC,> 100 µM
same,TGI,OVCAR-4 ovarian,> 100 µM
same,TGI,UACC-257 melanoma,> 100 µM
same,TGI,SW-620 colon,> 100 µM
same,TGI,MALME-3M melanoma,> 100 µM
same,TGI,DLD-1 colon,> 100 µM
same,TGI,NCI-H23 lung,> 100 µM
same,TGI,HT29 colon,> 100 µM
same,TGI,SK-OV-3 ovarian,> 100 µM
same,TGI,SNB-19 CNS,> 100 µM
same,TGI,HCT-15 colon,> 100 µM
same,TGI,HCT-116 colon,> 100 µM
same,TGI,ACHN renal,> 100 µM
same,TGI,COLO 205 colon,> 100 µM
same,TGI,HOP-92 NSCLC,> 100 µM
same,TGI,DMS 114 small cell lung,> 100 µM
same,TGI,SR leukemia,> 100 µM
same,TGI,UACC-62 melanoma,> 100 µM
same,TGI,TK-10 renal,> 100 µM
same,TGI,EKVX NSCLC,> 100 µM
same,TGI,HCC-2998 colon,> 100 µM
same,TGI,U251 CNS,> 100 µM
same,TGI,MOLT-4 leukemia,> 100 µM
same,TGI,SF-268 CNS,> 100 µM
CC[C@]1(O)CC2CN(CCCc3c([nH]c4ccccc34)[C@@](C(=O)OC)(c3cc4c(cc3OC)N(C)C3C45CCN4CC=C[C@](CC)(C45)C(OC(C)=O)[C@@]3(O)C(=O)OC)C2)C1 (stereo partly specified),TGI,NCI-H522 lung,0.393 µM
same,TGI,RXF 393 renal,4.41 µM
same,TGI,HOP-62 NSCLC,> 3.4 µM
same,TGI,KM12 colon,> 10 µM
same,TGI,A549 NSCLC,> 10 µM
same,TGI,K-562 leukemia,> 10 µM
same,TGI,OVCAR-3 ovarian,> 2.12 µM
same,TGI,SK-MEL-5 melanoma,> 6.15 µM
same,TGI,UO-31 renal,> 10 µM
same,TGI,SK-MEL-28 melanoma,> 10 µM
same,TGI,NCI-H226 lung,> 3.01 µM
same,TGI,SNB-75 CNS,5.7 µM
same,TGI,M14 melanoma,4.01 µM
same,TGI,HL-60(TB) leukemia,> 5.65 µM
same,TGI,SN12C renal,> 10 µM
same,TGI,SF-295 CNS,> 2.13 µM
same,TGI,SK-MEL-2 melanoma,> 8.05 µM
same,TGI,SF-539 CNS,6.03 µM
same,TGI,OVCAR-5 ovarian,> 10 µM
same,TGI,NCI-H460 lung,> 10 µM
same,TGI,CCRF-CEM leukemia,> 10 µM
same,TGI,RPMI-8226 leukemia,> 8.84 µM
same,TGI,786-0 renal,> 10 µM
same,TGI,LOX IMVI melanoma,> 10 µM
same,TGI,DMS 273 small cell lung,> 10 µM
same,TGI,A498 renal,4.54 µM
same,TGI,SNB-78 CNS,> 3.04 µM
same,TGI,KM20L2 colon,1.05 µM
same,TGI,OVCAR-8 ovarian,> 10 µM
same,TGI,IGROV1 ovarian,> 10 µM
same,TGI,CAKI-1 renal,> 10 µM
same,TGI,HOP-18 NSCLC,0.73 µM
same,TGI,M19-MEL melanoma,> 10 µM
same,TGI,LXFL 529 NSCLC,> 10 µM
same,TGI,OVCAR-4 ovarian,> 10 µM
same,TGI,UACC-257 melanoma,> 10 µM
same,TGI,SW-620 colon,> 10 µM
same,TGI,MALME-3M melanoma,> 3.16 µM
same,TGI,DLD-1 colon,> 10 µM
same,TGI,NCI-H23 lung,3.77 µM
same,TGI,HT29 colon,> 3.44 µM
same,TGI,SK-OV-3 ovarian,> 7.95 µM
same,TGI,SNB-19 CNS,9.83 µM
same,TGI,HCT-15 colon,> 10 µM
same,TGI,HCT-116 colon,> 10 µM
same,TGI,ACHN renal,> 10 µM
same,TGI,COLO 205 colon,> 7.86 µM
same,TGI,HOP-92 NSCLC,> 10 µM
same,TGI,UACC-62 melanoma,> 10 µM
same,TGI,TK-10 renal,> 10 µM
same,TGI,EKVX NSCLC,> 8.04 µM
same,TGI,HCC-2998 colon,8.2 µM
same,TGI,U251 CNS,> 10 µM
same,TGI,MOLT-4 leukemia,> 10 µM
same,TGI,SF-268 CNS,> 3.13 µM
